Like-named read-outs stand apart in the source and are kept apart here.
What was measured:
NSD2 SET domain = molecular target: T1, NSD2 SET domain (Homo sapiens, UniProt O96028); experiment: biochemical; parameters: Surface plasmon resonance binding to NSD2 SET domain; details: binder
T1 construct: SET domain, residues 934-1241, N-terminal His tag, E. coli
T1 sequence (O96028 934-1241): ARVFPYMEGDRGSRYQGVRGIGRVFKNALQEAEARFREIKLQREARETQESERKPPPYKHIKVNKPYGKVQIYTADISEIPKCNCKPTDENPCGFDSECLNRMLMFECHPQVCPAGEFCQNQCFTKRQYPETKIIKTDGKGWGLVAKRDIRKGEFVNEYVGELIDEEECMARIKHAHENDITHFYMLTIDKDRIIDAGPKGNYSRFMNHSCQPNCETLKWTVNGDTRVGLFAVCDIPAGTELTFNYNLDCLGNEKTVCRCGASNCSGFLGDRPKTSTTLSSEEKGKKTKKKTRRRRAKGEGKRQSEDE
Protocol: To support an on-target mechanism of action for the five inhibitors, surface plasmon resonance (SPR) was used to determine whether each inhibitor interacts with the catalytic SET domain of NSD2. […] Chaetocin bound the SET domain with an apparent dissociation constant of 20 nM. Additionally, the data indicated super-stoichiometric binding, which might be due to a binding ratio higher than 1:1 that is consistent with chaetocin’s two disulfide moieties forming adducts with the NSD2 protein, or compound aggregation (data not shown) ([56]).

SET1b Complex = SET1b Complex (Homo sapiens, UniProt Q9UPS6); experiment: HotSpot [3H]SAM filter-binding methyltransferase assay; format: biochemical; parameters: gene SETD1B; complex assembled as MLL1; SET1B N-terminal GST tag, E. coli; with WD repeat-containing protein 5; Set1/Ash2 histone methyltransferase complex subunit ASH2; Protein dpy-30 homolog
Chain of SET1b Complex (Q15291 whole entry): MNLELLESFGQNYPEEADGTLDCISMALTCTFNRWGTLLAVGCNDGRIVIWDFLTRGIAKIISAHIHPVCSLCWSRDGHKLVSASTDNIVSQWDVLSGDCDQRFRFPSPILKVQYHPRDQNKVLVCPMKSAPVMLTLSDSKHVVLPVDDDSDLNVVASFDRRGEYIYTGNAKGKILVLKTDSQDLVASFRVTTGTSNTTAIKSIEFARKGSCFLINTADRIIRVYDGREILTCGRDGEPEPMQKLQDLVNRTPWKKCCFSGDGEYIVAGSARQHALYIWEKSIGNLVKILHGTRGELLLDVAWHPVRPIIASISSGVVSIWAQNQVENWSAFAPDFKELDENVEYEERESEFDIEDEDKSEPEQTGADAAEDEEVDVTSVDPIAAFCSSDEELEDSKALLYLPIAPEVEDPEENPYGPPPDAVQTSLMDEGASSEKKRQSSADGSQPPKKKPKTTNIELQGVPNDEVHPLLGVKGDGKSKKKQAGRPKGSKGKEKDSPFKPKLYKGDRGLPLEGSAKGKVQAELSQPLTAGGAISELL
Chain of SET1b Complex (Q9UPS6 1672-1966): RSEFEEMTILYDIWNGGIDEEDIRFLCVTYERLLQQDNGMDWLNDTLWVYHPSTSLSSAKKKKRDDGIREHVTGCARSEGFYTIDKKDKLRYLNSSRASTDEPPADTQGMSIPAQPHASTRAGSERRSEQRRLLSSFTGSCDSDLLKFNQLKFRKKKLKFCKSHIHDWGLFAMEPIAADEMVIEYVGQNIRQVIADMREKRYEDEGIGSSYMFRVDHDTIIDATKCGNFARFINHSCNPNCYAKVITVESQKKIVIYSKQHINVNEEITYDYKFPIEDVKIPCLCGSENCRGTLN
Chain of SET1b Complex (Q9C005 whole entry, further chain): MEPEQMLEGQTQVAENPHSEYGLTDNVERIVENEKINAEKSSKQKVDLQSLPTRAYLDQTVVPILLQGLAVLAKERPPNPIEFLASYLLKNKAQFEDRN
Chain of SET1b Complex (Q9UBL3 96-628, further chain): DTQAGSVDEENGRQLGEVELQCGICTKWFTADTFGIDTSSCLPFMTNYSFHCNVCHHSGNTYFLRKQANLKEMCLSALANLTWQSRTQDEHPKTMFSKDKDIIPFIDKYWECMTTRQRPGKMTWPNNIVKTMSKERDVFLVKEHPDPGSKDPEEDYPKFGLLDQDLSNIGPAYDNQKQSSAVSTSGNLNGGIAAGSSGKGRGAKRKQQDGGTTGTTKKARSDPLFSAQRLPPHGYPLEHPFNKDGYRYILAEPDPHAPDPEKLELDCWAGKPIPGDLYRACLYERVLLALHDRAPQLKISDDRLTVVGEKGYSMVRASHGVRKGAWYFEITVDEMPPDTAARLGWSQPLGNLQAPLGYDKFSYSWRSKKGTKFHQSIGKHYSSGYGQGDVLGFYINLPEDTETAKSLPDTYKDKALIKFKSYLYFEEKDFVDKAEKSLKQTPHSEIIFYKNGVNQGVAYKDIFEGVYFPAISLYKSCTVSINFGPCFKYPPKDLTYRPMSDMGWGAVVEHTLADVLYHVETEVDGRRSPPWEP

NSD2 = molecular target: T2, NSD2 (Homo sapiens, UniProt O96028, T1150A); experiment: biochemical; parameters: MTase-Glo bioluminescence methyltransferase assay, full-length NSD2 with HeLa nucleosomes; details: read-out: MTase-Glo IC50
T2 construct: full length (residues 2-1365), N-terminal His tag, insect cell/baculovirus
T2 sequence (O96028 2-1365 T1150A): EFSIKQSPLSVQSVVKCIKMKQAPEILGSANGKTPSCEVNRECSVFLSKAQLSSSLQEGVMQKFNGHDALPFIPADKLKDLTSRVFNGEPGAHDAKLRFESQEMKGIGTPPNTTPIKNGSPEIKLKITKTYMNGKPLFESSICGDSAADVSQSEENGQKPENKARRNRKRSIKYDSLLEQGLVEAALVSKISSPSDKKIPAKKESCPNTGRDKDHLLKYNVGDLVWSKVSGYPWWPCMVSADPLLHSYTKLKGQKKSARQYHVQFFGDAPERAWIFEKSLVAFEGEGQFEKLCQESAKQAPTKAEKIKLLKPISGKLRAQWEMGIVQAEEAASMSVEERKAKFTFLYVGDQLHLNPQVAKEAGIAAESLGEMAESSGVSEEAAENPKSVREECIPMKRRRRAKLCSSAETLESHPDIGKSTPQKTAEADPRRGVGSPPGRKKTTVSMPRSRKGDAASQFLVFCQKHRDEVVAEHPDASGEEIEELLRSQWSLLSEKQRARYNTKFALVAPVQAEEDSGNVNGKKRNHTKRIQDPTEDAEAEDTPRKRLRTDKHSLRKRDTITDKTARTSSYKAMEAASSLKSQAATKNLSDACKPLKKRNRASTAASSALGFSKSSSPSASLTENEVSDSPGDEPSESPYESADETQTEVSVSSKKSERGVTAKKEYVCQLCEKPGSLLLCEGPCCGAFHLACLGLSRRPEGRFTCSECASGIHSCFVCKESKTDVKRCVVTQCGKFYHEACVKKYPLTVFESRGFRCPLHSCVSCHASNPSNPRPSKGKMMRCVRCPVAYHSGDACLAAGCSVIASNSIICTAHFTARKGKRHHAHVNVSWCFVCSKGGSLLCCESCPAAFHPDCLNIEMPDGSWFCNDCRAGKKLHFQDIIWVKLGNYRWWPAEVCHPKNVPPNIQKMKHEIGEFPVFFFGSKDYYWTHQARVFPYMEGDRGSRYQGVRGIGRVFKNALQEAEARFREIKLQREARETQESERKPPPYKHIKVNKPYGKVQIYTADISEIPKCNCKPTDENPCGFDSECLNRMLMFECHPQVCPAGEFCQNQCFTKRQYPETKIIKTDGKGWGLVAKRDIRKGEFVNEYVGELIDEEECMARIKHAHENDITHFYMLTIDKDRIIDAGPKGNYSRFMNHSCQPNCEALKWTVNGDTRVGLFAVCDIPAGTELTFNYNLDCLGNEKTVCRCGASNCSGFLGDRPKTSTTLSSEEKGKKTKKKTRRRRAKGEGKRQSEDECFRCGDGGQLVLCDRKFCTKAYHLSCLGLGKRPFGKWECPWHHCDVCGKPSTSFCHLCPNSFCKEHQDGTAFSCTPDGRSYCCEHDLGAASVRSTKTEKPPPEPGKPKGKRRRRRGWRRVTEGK
Source text: A major challenge in screening for small molecule inhibitors is that native NSD2 requires nucleosomes as a substrate ([17]). […] Chemical libraries were screened in 3-dose point quantitative high-throughput screening (qHTS) format ([43]) with the Methyltransferase-Glo (MTase-Glo™) methyltransferase bioluminescence assay ([44]). A number of counter and orthogonal assays were also developed to characterize the hits from the primary screen. Confirmed hits were validated with a radiolabeled SAM substrate-based NSD2 activity assay and further interrogated with binding studies by surface plasmon resonance (SPR), methyltransferase profiling, and activity assessments in U-2 OS cells. […] Overall the reaction conditions were very similar.

PRMT5 = PRMT5 (Homo sapiens, UniProt O14744); experiment: biochemical
Chain of PRMT5 (O14744 whole entry): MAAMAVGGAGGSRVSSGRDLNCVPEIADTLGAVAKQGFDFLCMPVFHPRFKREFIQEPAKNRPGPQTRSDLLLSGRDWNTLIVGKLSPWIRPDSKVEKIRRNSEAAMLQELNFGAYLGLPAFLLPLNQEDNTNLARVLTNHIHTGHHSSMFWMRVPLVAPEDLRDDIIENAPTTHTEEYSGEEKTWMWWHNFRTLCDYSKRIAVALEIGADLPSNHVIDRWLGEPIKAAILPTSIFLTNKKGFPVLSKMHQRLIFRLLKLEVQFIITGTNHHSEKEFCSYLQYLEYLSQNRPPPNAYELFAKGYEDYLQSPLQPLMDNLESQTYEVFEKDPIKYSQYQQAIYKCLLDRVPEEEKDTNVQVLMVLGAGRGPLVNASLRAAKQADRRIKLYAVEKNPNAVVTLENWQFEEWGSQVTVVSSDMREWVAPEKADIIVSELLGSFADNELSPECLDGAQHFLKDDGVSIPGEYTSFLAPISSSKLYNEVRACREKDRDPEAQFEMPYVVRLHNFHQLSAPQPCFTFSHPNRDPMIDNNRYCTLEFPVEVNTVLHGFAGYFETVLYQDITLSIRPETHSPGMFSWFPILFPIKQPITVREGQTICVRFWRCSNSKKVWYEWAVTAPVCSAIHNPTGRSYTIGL

DNMT3b/3L = DNMT3b/3L (Homo sapiens, UniProt Q9UBC3); experiment: biochemical
[1] = read-out: DA3003-1 IC50, inhibitor

## CC1(C)CCC(CN2CCN(c3ccc(C(=O)NS(=O)(=O)c4ccc(NCC5CCOCC5)c([N+](=O)[O-])c4)c(Oc4cnc5[nH]ccc5c4)c3)CC2)=C(c2ccc(Cl)cc2)C1 [ABT-199]
NSD2 SET domain
  koff: 0.0364 s⁻¹
  kon: 4390 M⁻¹ s⁻¹
SET1b Complex
  IC50: 7.1 µM
NSD2
  IC50: 15 µM

## O=C1C(Cl)=C(NCCN2CCOCC2)C(=O)c2ncccc21 [DA3003-1]
PRMT5; [1]
  IC50: 0.65 µM
NSD2 SET domain
  Kd: 0.37 µM
DNMT3b/3L; [1]
  IC50: 0.72 µM
NSD2; inhibitor
  IC50: 2.9 µM

## COc1cccc(-n2nc(C(=O)O)cc2-c2ccc(C3CCCCC3)c(Cl)c2)c1 [TC LPA5 4]
PRMT5
  IC50: 17 µM
SET1b Complex; core histone, […] SAM, pH […] MgCl2, […] DTT, […] °C, single experiment
  IC50: 8 µM
DNMT3b/3L
  IC50: 30 µM

From paper doi:10.1101/208439v1 (biorxiv, 2017)
